From US20250066480A1, “METHODS TO ENHANCE EFFICACY OF COMBINED TARGETING OF IMMUNE CHECKPOINT AND MAPK PATHWAYS” (THE REGENTS OF THE UNIVERSITY OF CALIFORNIA, priority 2021, published 2025)

Experiments:
NRAS^MUT melanoma = details: patients with NRAS^MUT melanoma; cited from earlier work
[1] = test system: intratumoral T-cell clonotypes (YUMM1.7ER metastases); test: Bulk tumor TCR-seq of tumor-involved brain and ovarian tissues; assay type: in vivo, mouse; details: on d3; FIG. 6B
Protocol: Total RNA was extracted from frozen tissue stored in RNALater using the QIAGEN All Prep DNA/RNA Mini Kit. RNA quality was measured using Bioanalyzer (Agilent). 710 ng-1,000 ng of RNA from ovary and brain tissues (RNA Integrity Number (RIN) score >7) was used as input to construct libraries with the QIAGEN QIAseq Immune Repertoire RNA Library Kit—T cell Receptor Panel (Qiagen). Briefly, RNA was reverse transcribed using a pool of TCR gene-specific primers against the constant region for the T cell receptor alpha, beta, gamma, and delta genes. The resulting cDNA was then ligated to an oligo containing one side of sample index and unique molecular index (UMI). […] The dual-indexed sample PCR fragment was purified and then quantified for absolute quantification of amplifiable libraries (DNA with adaptors at both ends) in triplicate by real-time qPCR using QIAGEN QIAseq Library Quant Array Kit. […] 12 μM of denatured library pool was run with QIAseq A Read1 Primer on Illumina NextSeq 500 Mid Output Kit using v2.5 chemistry for 300 cycles with an asymmetrical paired end 261/41 bp read for CDR3 region.
As reported previously (10), raw reads were submitted to the QIAGEN GeneGlobe Data Analysis Center (qiagen.com/us/shop/genes-and-pathways/data-analysis-center-overview-page/) to estimate the abundance of reads of unique CDR3 sequence and generate TCR clonotype calls. […]

[2] = test system: YUMM1.7ER-luc (Braf^V600E melanoma) intracranial and extracranial metastases; test: Experimental metastasis of syngeneic melanoma (intracardiac injection, BLI, survival); details: MEKi monotherapy from d0
Protocol: YUMM1.7ER melanoma cells were engineered to express firefly luciferase (YUMM1.7ER-luc). Before every IC injection, cells were selected for stable luciferase expression by blasticidin treatment, yielding cells (1 million) that emitted luciferase light units of 5e8 to 5e9 in vitro. C57BL/6 (6-8 weeks old, female), after anesthesia with vaporized isoflurane (2.0-2.5%), were injected with 1×10^6 cells/mouse into the left ventricle for intracardiac inoculation. Progression of metastatic tumor burden and treatment effects in mice were monitored in vivo and ex vivo by bioluminescent imaging (BLI). We acquired BLI on both ventral and dorsal sides twice weekly until study endpoints (total ventral or dorsal BLI signal in the range of 1e9-1e10, moribund, or death). Mice were anesthetized with vaporized isoflurane; D-luciferin (150 mg luciferin/kg, Caliper Life Sciences) dosed by intraperitoneal injections; and, 10 minutes after injections, luciferase activities were measured with IVIS Lumina II Imaging System (PerkinElmer). Image analysis was performed with Living Image 4.7.2 Version (PerkinElmer). For ex vivo BLI, mice were euthanized 10 minutes after intraperitoneal injection of D-luciferin by cervical dislocation and organs were excised and imaged ex vivo by the IVIS system. […]

Row | SMILES | Clinical benefit (median PFS, confirmed overall response, median duration of objective response) in association with prior ICT (NRAS^MUT melanoma) | Fraction of overlapping TCR clones between two distinct regions of tumor-involved brain tissues [1] | Delay of MBM [2] [weeks]
1 | Cn1cnc2c(F)c(Nc3ccc(Br)cc3F)c(C(=O)NOCCO)cc21 [binimetinib] | greater clinical benefit |  | 
2 | CC(=O)Nc1cccc(-n2c(=O)n(C3CC3)c(=O)c3c(Nc4ccc(I)cc4F)n(C)c(=O)c(C)c32)c1 [Trametinib, trametinib] |  | 6.17-9.77% | ~1.5
